These results are taken from publication PMC2680649 (International Journal of Molecular Sciences, 2009).

Like-named read-outs stand apart in the source and are kept apart here.

One data set has as its system cytochrome P450. The format is in vitro ADME, rat.
Data set [1] in a line: ZEN incubation with rat liver post-mitochondrial fraction (S9).
Data set [2] can be described thus: In vitro metabolism of zearalenone, pig liver microsomal preparation. The format is in vitro ADME, pig (Yucatan). The following applies: Pig liver microsomes, 1 μM total P450, 50 μM ZEN, NADPH-generating system, pH 7.4, 30 min; n = 4. The text has this: (§1) Monkeys (Cynomolgus, Macaca fascicularis), pig (Yucatan), dog (Beagle), rabbit (New Zealand), mouse (CD-1) and rat (Sprague Dawley) liver microsomes, rat 2C Supersomes® were purchased from Gentest (BD Biosciences, NJ, USA). Pools of human livers for female or male were purchased from Xenotech (Tebu-Bio, Le Perray en Yvelines, France). Human CYP Bactosomes® were provided by Cypex (Tebu-Bio, Le Perray en Yvelines, France).
(In general: Liver microsomes are vesicles of endoplasmic reticulum, rich in cytochrome P450 enzymes.)

Data set [3] is described as follows: ZEN incubation with rat liver cytosolic fraction. The conditions noted are these: rat liver cytosol, presence of NADPH.
Data set [4] in a line: In vitro metabolism of zearalenone, rabbit liver microsomal preparation. The following applies: Rabbit liver microsomes, 1 μM total P450, 50 μM ZEN, NADPH-generating system, pH 7.4, 30 min; n = 4. The class given is in vitro ADME, rabbit (New Zealand).
From the text: as §1

Data set [5] can be described thus: In vitro metabolism of zearalenone, PB-treated rat liver microsomal preparation. The conditions noted are these: PB-treated rat liver microsomes, 1 μM total P450, 50 μM ZEN, NADPH-generating system, pH 7.4, 30 min; n = 4.
Data set [6] can be described thus: In vitro metabolism of zearalenone, human female liver microsomal preparation. The format is in vitro ADME. The following applies: Human Female liver microsomes, 1 μM total P450, 50 μM ZEN, NADPH-generating system, pH 7.4, 30 min; n = 4.
From the text: as §1

Data set [7] in a line: In vitro metabolism of zearalenone, Cynomolgus monkey liver microsomal preparation. The class given is in vitro ADME, Macaca fascicularis. The conditions noted are these: Cynomolgus monkey liver microsomes, 1 μM total P450, 50 μM ZEN, NADPH-generating system, pH 7.4, 30 min; n = 4.
From the text: as §1

Data set [8] is described as follows: In vitro metabolism of zearalenone, mouse liver microsomal preparation. The class given is in vitro ADME, mouse (CD-1). The conditions noted are these: Mouse liver microsomes, 1 μM total P450, 50 μM ZEN, NADPH-generating system, pH 7.4, 30 min; n = 4.
From the text: as §1

Data set [9] is described as follows: In vitro metabolism of zearalenone, rat liver microsomal preparation. The class given is in vitro ADME, rat (Sprague Dawley). The following applies: Rat (untreated) liver microsomes, 1 μM total P450, 50 μM ZEN, NADPH-generating system, pH 7.4, 30 min; n = 4.
From the text: as §1

Data set [10] can be described thus: In vitro metabolism of zearalenone, dog liver microsomal preparation. The format is in vitro ADME, dog (Beagle). The conditions noted are these: Dog liver microsomes, 1 μM total P450, 50 μM ZEN, NADPH-generating system, pH 7.4, 30 min; n = 4.
From the text: as §1

Data set [11] can be described thus: In vitro metabolism of zearalenone, human male liver microsomal preparation. The format is in vitro ADME. The conditions noted are these: Human Male liver microsomes, 1 μM total P450, 50 μM ZEN, NADPH-generating system, pH 7.4, 30 min; n = 4.
From the text: as §1

For a further data set, the target named is T1, hER-α (Homo sapiens, UniProt P03372).
T1 construct: expressed in transfected cells; host or cells: HELN (HeLa carrying a stably transfected estrogen-responsive luciferase reporter)
T1 sequence (P03372 whole entry): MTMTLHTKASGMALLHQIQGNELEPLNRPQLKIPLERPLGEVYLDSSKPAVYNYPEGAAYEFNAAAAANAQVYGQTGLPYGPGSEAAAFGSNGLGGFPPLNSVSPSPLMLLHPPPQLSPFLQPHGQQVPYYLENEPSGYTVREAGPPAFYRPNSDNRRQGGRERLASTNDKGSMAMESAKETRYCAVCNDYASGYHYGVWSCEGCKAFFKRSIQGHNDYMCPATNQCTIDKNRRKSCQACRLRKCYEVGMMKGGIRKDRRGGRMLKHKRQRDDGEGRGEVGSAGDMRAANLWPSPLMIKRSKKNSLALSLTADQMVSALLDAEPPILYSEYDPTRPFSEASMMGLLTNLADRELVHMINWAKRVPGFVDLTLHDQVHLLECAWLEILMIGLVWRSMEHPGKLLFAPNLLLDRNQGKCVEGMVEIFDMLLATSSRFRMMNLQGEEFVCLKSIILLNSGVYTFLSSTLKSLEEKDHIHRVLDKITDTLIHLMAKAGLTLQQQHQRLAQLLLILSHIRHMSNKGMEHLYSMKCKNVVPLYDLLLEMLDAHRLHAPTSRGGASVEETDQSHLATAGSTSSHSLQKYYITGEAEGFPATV
Put plainly: cell-based. The class given is cell-based.

Another data set concerns human ERβ. Details: method as in PMID 9751507. The following applies: cells transfected with human ERβ; cited from earlier work.
For the next data set, the system named is human ERα. Details: method as in PMID 9751507. The following applies: cells transfected with human ERα; cited from earlier work.
The target of a further data set is T2, hER-β (Homo sapiens, UniProt Q92731).
T2 construct: expressed in transfected cells; host or cells: HELN (HeLa carrying a stably transfected estrogen-responsive luciferase reporter)
T2 sequence (Q92731 whole entry): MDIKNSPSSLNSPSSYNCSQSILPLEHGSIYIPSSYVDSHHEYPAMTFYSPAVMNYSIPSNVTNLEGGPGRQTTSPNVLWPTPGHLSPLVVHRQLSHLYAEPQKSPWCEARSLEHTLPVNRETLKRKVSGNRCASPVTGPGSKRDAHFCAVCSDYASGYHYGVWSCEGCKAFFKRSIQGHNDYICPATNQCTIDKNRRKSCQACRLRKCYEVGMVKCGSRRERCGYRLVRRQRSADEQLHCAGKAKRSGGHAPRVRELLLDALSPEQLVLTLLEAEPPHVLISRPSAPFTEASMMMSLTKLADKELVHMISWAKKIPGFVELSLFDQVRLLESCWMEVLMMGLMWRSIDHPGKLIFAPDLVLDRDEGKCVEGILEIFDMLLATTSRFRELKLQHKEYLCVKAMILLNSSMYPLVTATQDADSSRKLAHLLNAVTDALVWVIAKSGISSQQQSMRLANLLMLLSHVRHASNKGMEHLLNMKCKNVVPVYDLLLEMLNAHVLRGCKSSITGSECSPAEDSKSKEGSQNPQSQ
Put plainly: cell-based. The following applies: read-out: EC50, half-maximal luciferase activity, transcriptional activation through ER β.

`CC(=O)N1CCN(c2ccc(OCC3COC(Cn4ccnc4)(c4ccc(Cl)cc4Cl)O3)cc2)CC1` (stereo not shown) [ketoconazole]: in the data set with cytochrome P450, the “effect on formation of OH-ZEN” value is “inhibited”.
For the compound β-zearalenol [β-ZOL], the “metabolite found in post-mitochondrial incubation (fraction S9)” value in data set [1] is given as “in association with β-ZOL”. The “formation rate of ZEN metabolite” value in data set [2] amounted to 10.0 ± 1.8 nmoles/30 min/nmole P450; in [4], 1.9 ± 0.4 nmoles/30 min/nmole P450; in data set [5] it was 3.3 ± 0.4 nmoles/30 min/nmole P450; in [6] it was 0.3 ± 0.1 nmoles/30 min/nmole P450. Moreover, in [3], the “metabolite formed in cytosolic fraction” value is on record as “formed”.
In the case of `C[C@H]1CCC[C@H](O)CCC/C=C/c2cc(O)cc(O)c2C(=O)O1` [α-ZOL, α-zearalenol], the “formation rate of ZEN metabolite” value in data set [7] was found to be 4.0 ± 0.4 nmoles/30 min/nmole P450; in data set [8], 41.3 ± 11.5 nmoles/30 min/nmole P450; in data set [9], 14.7 ± 2.5 nmoles/30 min/nmole P450; in data set [2], 7.4 ± 0.6 nmoles/30 min/nmole P450; in data set [4], 2.5 ± 0.4 nmoles/30 min/nmole P450; in data set [10], 2.8 ± 0.3 nmoles/30 min/nmole P450. Also, the “formation rate of ZEN metabolite” value in [6] was determined as 3.3 ± 0.5 nmoles/30 min/nmole P450; in data set [11], 3.6 ± 0.3 nmoles/30 min/nmole P450. For the same compound, the “metabolite formed in cytosolic fraction” value in data set [3] is “formed”.
Turning to `C[C@H]1CCC[C@H](O)CCCCCc2cc(O)cc(O)c2C(=O)O1` [α–ZAL, α-zearalanol], the concentration for a half-maximal effect (EC50) at hER-α (read-out: EC50, half-maximal luciferase activity, transcriptional activation through ER α, HELN ER-α cells, 16 h at 37 °C, maximal activity with 10 nM E2) is 0.00049 ± 0.0009 µM.
For the compound `C[C@H]1CCCC(=O)CCC/C=C/c2cc(O)cc(O)c2C(=O)O1` [ZEN, (3S,11E)-3,4,5,6,9,10-Hexahydro-14,16-dihydroxy-3-methyl-1H-2-benzoxacyclotetradecin-1,7(8H)-dione], the EC50 turned out to be 0.0118 ± 0.0019 µM on hER-α and 0.0115 ± 0.0025 µM at hER-β. In addition, the “agonist character for ERβ” value in the data set on human ERβ was “partial agonist”. In addition, in the data set with human ERα, the “agonist character for ERα” value is on record as “full agonist”.
Turning to `[C-]#[O+]` [carbon monoxide], the “effect on formation of OH-ZEN” value with cytochrome P450 (carbon monoxide) is “inhibited”.

As a reminder, the EC50 is the concentration giving half of the maximal effect.
